{"source": "patent US4680382A", "about": "“Analogues of actinomycin D” (priority 1986, dated 1987)", "key": {"calf-thymus DNA": {"system": "calf-thymus DNA", "experiment": "Equilibrium binding to calf-thymus DNA, Scatchard plots of binding isotherms (spectrophotometric)", "conditions": "Scatchard plot", "procedure": "(§1) The \"reverse\" analogues bind to calf-thymus DNA, but the spectrophotometrically determined binding (Kapp and Bapp, equilibrium binding values) constants are found to be lower than those of AMD. The binding is also measured by thermal denaturation of DNA.\n(§2) The equilibrium binding constants (Kapp and Bapp) of the \"reverse\" methyl 7a and the \"reverse\" phenyl 8a were determined from the Scatchard plots of binding isotherms; the Scatchard plots are produced according to the previously described methods using calf-thymus DNA [Sengupta et al, Biochem. Biophys. Acta 521, 89 (1978)]. The Kapp values are 2.5×10^6 and 2.3×10^6 M^-1, respectively; corresponding Bapp values are 0.038 and 0.036. […] But, these \"reverse\" analogues associate with DNA less strongly; their frequency of binding is also lower compared to that of AMD. However, the \"reverse\" analogues fail to cause any measurable change in the ratio of the intrinsic viscosity (γ) of DNA with the increasing ratios of [ligand]/DNA base pair (r), even when low molecular weight DNAs (0.5×10^5 to 1.0×10^5) were employed."}, "DNA": {"system": "DNA", "experiment": "Thermal denaturation of DNA (ΔTm)", "type": "binding", "procedure": "as §1, §2\nMelting points are determined on a Thomas-Hoover melting point apparatus at a heating rate of 2° C./min. Thin-layer chromatography was performed on silica gel plates (Brinkmann Instrument Inc.). Solvent systems were (A) EtOAc-acetone (4:1), (B) CHCl3 -MeOH (9:1) and (C) Cifferri, the organic phase of the mixture EtOAc-MeOH-H2 O (20:1:20). High-performance liquid chromatography was carried out on a Varian Model 5020 gradient liquid chromatograph equipped with a CD-111L chromatography data system and fitted with a Varian reversed-phase C18 column with the following solvent systems: I, CH3 CN-5 mM NH4 OAc buffer, pH 6.4 (68:32 isocratic), flow rate 1.5 mL/min; II, 65-95% water-methanol gradient for 70 min, 1 mL/min; III, 10-90% H2 O-MeOH gradient for 120 min, 1 mL/min, with UV-visible variable- and fixed-wavelength dual detectors at 254, 440, 470 and 520 nm. IR spectra were obtained on a Perkin-Elmer Model 237 Infra Cord with KBr micropellets or in chloroform solutions. UV-visible spectra were obtained on a Gilford 250 spectrophorometer, which, with the addition of a base-line reference compensator (Analog Multiplexer 5053) and thermoprogrammer, auto four cell programmer and thermoelectric cell holder 2577, were used to obtain thermal denaturation curves. Specific rotation values were determined in chloroform solutions with a Cary 60 spectropolarimeter. NMR spectra were obtained in a JEOL FQ-90 MHz spectrometer equipped with Fourier transform. EPR spectra analyses were recorded in a Varian E-9 EPR spectrometer. All elemental analyses were within ±0.4%."}, "[1]": {"target": "T1, NADPH cytochrome P-450 reductase (rat liver microsomes) (Rattus norvegicus, UniProt P00388)", "T1 sequence (P00388 1-678)": "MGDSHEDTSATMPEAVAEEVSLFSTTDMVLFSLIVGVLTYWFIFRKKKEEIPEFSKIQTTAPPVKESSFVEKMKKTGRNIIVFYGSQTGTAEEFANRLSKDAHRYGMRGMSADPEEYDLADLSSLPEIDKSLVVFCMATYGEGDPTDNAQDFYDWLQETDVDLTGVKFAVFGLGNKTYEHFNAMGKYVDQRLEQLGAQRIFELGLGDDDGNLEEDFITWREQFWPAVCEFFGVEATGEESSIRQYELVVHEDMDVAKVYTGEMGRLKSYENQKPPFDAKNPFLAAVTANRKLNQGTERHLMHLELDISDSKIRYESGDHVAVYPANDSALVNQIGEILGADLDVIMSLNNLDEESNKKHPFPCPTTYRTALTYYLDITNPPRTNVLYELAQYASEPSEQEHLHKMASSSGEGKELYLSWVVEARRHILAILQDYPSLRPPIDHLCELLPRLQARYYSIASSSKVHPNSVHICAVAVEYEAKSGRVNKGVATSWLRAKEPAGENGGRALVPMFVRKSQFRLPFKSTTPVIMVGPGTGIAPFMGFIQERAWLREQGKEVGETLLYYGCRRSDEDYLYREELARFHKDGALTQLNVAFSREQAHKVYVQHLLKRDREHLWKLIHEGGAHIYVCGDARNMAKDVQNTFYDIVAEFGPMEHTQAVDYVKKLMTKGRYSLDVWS", "experiment": "Stimulation of NADPH oxidation in rat hepatic microsomal incubations", "conditions": "for NADPH oxid: 340 nm, 37° C., phenobarbital induced microsomes, mean ± standard error of triplicate, basal 9.11 ± 0.30; for percentage stimulation of NADPH oxidation over basal rate: (drug-stimulated rate - basal rate)/basal rate × 100"}}, "note": "*1 amine or outer side, *2 acyl side, *3 side chain or, on linkers, in order; H or OH if unused. Where a SMILES comes first, the peptide text is derived from it. Bridges are numbered along the chain shown (N, C = ends). Roman numbers before positions name the chains, in order. [ ]: non-standard residue; d: D form. Actinocin(9to1) = Cc1c2oc3c(C)ccc(C(=O)[*:1])c3nc-2c(C(=O)[*:2])c(N)c1=O; NMeV = CN[C@H](C(=O)O)C(C)C; Sar = CNCC(=O)O"}
{"smiles": "Cc1c2oc3c(C)c(O)c(N)c(C(=O)NC4C(=O)NC(C(C)C)C(=O)N5CCCC5C(=O)N(C)CC(=O)N(C)C(C(C)C)C(=O)OC4C)c3nc-2c(C(=O)NC2C(=O)NC(C(C)C)C(=O)N3CCCC3C(=O)N(C)CC(=O)N(C)C(C(C)C)C(=O)OC2C)c(N)c1=O", "note": "(centres unmarked) [4a, 7-Hydroxy-8-amino-actinomycin D]", "values": [{"measurement": "Bapp (equilibrium binding value)", "setting": "calf-thymus DNA", "value": 1.3}, {"measurement": "Kapp (equilibrium binding constant)", "setting": "calf-thymus DNA", "value": "6.3e+07", "unit": "M⁻¹"}, {"measurement": "ΔTm (DNA melting temperature)", "setting": "DNA", "value": "7.9±0.2", "unit": "°C"}, {"measurement": "NADPH oxid", "setting": "[1]", "value": "64.3 ± 2.11 nmol min^-1 (mg of protein)^-1"}, {"measurement": "percentage stimulation of NADPH oxidation over basal rate", "setting": "[1]", "value": 606, "unit": "%"}]}
{"smiles": "Cc1nc2c(C(=O)NC3C(=O)NC(C(C)C)C(=O)N4CCCC4C(=O)N(C)CC(=O)N(C)C(C(C)C)C(=O)OC3C)c3nc4c(C(=O)NC5C(=O)NC(C(C)C)C(=O)N6CCCC6C(=O)N(C)CC(=O)N(C)C(C(C)C)C(=O)OC5C)c(N)c(=O)c(C)c-4oc3c(C)c2o1", "note": "[7a, 7-Amino-2,9,11-trimethyl-8H-8-oxooxazolo [4,5-b]phenoxazine 4,6-bis[carbonyl-L-threonyl-D-valyl-L-prolylsarcosyl-L-N-methylvaline-(threonine hydroxyl)] lactone]", "values": [{"measurement": "Bapp (equilibrium binding value)", "setting": "calf-thymus DNA", "value": 0.038}, {"measurement": "Kapp (equilibrium binding constant)", "setting": "calf-thymus DNA", "value": "2.5e+06", "unit": "M⁻¹"}, {"measurement": "ΔTm (DNA melting temperature)", "setting": "DNA", "value": "5.5±0.3", "unit": "°C"}, {"measurement": "NADPH oxid", "setting": "[1]", "value": "21.3 ± 1.93 nmol min^-1 (mg of protein)^-1"}, {"measurement": "percentage stimulation of NADPH oxidation over basal rate", "setting": "[1]", "value": 134, "unit": "%"}]}
{"smiles": "Cc1nc2c(C(=O)NC3C(=O)NC(C(C)C)C(=O)N4CCCC4C(=O)N(C)CC(=O)N(C)C(C(C)C)C(=O)OC3C)c3nc4c(C(=O)NC5C(=O)NC(C(C)C)C(=O)N6CCCC6C(=O)N(C)CC(=O)N(C)C(C(C)C)C(=O)OC5C)cc(=O)c(C)c-4oc3c(C)c2o1", "note": "(centres unmarked) [9a]", "values": [{"measurement": "NADPH oxid", "setting": "[1]", "value": "19.1 ± 1.70 nmol min^-1 (mg of protein)^-1"}, {"measurement": "percentage stimulation of NADPH oxidation over basal rate", "setting": "[1]", "value": 110, "unit": "%"}]}
{"smiles": "Cc1c2oc3c(C)ccc(C(=O)N[C@@H]4C(=O)N[C@H](C(C)C)C(=O)N5CCC[C@H]5C(=O)N(C)CC(=O)N(C)[C@@H](C(C)C)C(=O)O[C@@H]4C)c3nc-2c(C(=O)N[C@@H]2C(=O)N[C@H](C(C)C)C(=O)N3CCC[C@H]3C(=O)N(C)CC(=O)N(C)[C@@H](C(C)C)C(=O)O[C@@H]2C)c(N)c1=O", "note": "[AMD, Actinomycin D] (I: T[dV]P[Sar][NMeV] / II: T[dV]P[Sar][NMeV]; ester I:1-I:C, II:1-II:C; linker I:N-II:N via Actinocin(9to1))", "values": [{"measurement": "Bapp (equilibrium binding value)", "setting": "calf-thymus DNA", "value": 0.108}, {"measurement": "Kapp (equilibrium binding constant)", "setting": "calf-thymus DNA", "value": "2.3e+07", "unit": "M⁻¹"}, {"measurement": "ΔTm (DNA melting temperature)", "setting": "DNA", "value": "7.1±0.15", "unit": "°C"}, {"measurement": "NADPH oxid", "setting": "[1]", "value": "10.01 ± 0.90 nmol min^-1 (mg of protein)^-1"}, {"measurement": "percentage stimulation of NADPH oxidation over basal rate", "setting": "[1]", "value": 9.9, "unit": "%"}]}
